Laboratory results as given in patent publication US11530514B2, “Method for manufacturing a fibrous web” (Kemira Oyj, priority 2017, dated 2022).
Structures can show the parent of a compound that is named as a salt.

Columns and labels:
Assay type in all cases: cell-based
[1] = tested on: total aerobic bacteria; experiment: Example 2: total aerobes count in stagnant 2 d old broke diluted with circulation water; details: DGH 70 mg/l active 5 min, total contact time 35 min, +45° C., untreated 9×10^6 CFU/ml
Description: (§1) Authentic broke and circulation water samples were collected from an alkaline paper mill producing food packaging board. 1 litre of broke was stored for 2 days, +45° C., with closed cap, without mixing, in order to induce anaerobism and thus bacterial sporulation. This stagnant sample was divided to four 100 ml samples, out of which two replicate samples were treated with a germinant surfactant comprising 35 weight-% dodecylguanidine hydrochloride (DGH) and dipropyleneglycol as solvent. The dosage was 70 mg/L as active DGH. Two replicates were left without any chemical additions as reference samples.
(§2) After chemical contact time of 5 min, all samples were diluted three times with the circulation water and incubated for 30 minutes, at +45° C., mixing of 160 rpm. Total aerobes (PCA, +37° C.) and aerobic spores (PCA, +37° C.) were measured at start from reference samples and after the total contact time of 35 min from all samples.

[2] = tested on: total aerobic bacteria; experiment: Example 3: total aerobic bacteria count in paper machine process water, biocidal pre-treatment; details: sodium hypochlorite 5 ppm as active chlorine (1 min pre-treatment) and/or DGH 100 ppm as active, untreated 7 000 000
Description: (§3) Objective of this laboratory test was to study effect of biocidal pre-treatment on bacterial killing and spore sensitisation efficacy of a germinant surfactant comprising 35 weight-% of dodecylguanidine hydrochloride (DGH) and dipropyleneglycol as solvent in paper machine process water.
Authentic circulation water (1 litre) was collected from a paper machine producing food packaging board and divided into 4 samples with volume of 50 ml. To obtain equal bacterial spore content in the samples at start of the experiment, each sample was spiked with additional bacterial spores. The target level for spores was c.a. 10 000 CFU/ml. The spore solution for spiking was prepared as follows: authentic spore-forming bacteria that were isolated from a paper making process were pre-grown for 2 days at +37° C. in modified nutrient broth, after which the mature spores were harvested, and washed by using centrifugation and cold water. […]
Samples were stored at 45° C., under mixing of 180 rpm, for 30 minutes except samples 2 and 4, which were in addition pre-treated with sodium hypochlorite for 1 minute. After the treatment the amount of total aerobic bacteria (non-pasteurized samples) and aerobic spores were quantified (plate count agar, +32° C., 2 days incubation). […]

[3] = tested on: aerobic spores; experiment: Example 1: aerobic spore count in spiked paper machine water/broke at variable pulp consistency; details: for Spore reduction (%): DGH 100 mg/L as active vs no addition; for Aerobic spores, cfu/ml (+82° C., 10 min, +32° C., 2 d PCA): DGH 100 mg/L as active, 30 min, 45° C.
Source text: (§4) Objective of this laboratory test was to study bacterial killing and spore sensitisation effect of a germinant surfactant composition comprising 35 weight-% of dodecylguanidine hydrochloride (DGH) and dipropyleneglycol as solvent in paper machine process water, at variable pulp consistency.
(§5) Authentic circulation water, with low fibre content, and authentic broke, with high fibre content, were collected from a paper machine, which produced food packaging board. Circulation water and broke samples were mixed together to obtain 6 samples in total, at 3 different pulp consistency levels.
(§6) To obtain equal bacterial spore content in the samples at the start of the experiment, each sample was spiked with additional bacterial spores. Target spore level in the sample was set to ca. 10 000 CFU/ml. The spore solution for spiking was prepared as follows: authentic spore-forming bacteria that were isolated from a paper making process were pre-grown for 2 days at +37° C. in a modified nutrient broth, after which the mature spores were harvested, and washed by using centrifugation and cold water.
(§7) Out of the 6 samples, 3 test samples were treated with germinant surfactant comprising dodecylguanidine hydrochloride (DGH) and 3 samples were left without any chemical addition as reference samples. After addition of germinant surfactant, the test samples as well as the reference samples (no addition) were stored at 45° C., mixing of 180 rpm, for 30 minutes, followed by quantification of total aerobic bacteria (non-pasteurized samples) and aerobic spores (plate count agar, +32° C., 2 days incubation). Prior to the aerobic spore determination, samples were pasteurized at +82° C. for 10 min. Weight of suspended solids per litre of liquid, i.e. pulp consistency, was determined at the end of the test (dry weight of sample per total weight of sample).

[4] = tested on: total aerobic bacteria; experiment: Example 1: total aerobic bacteria count in paper machine water/broke at variable pulp consistency; details: for Bacterial killing efficacy (%): DGH 100 mg/L as active vs no addition; for Total aerobic bacteria (+32° C., 2 d PCA): DGH 100 mg/L as active, 30 min, 45° C.
Source text: as §4, §5, §6, §7

[5] = tested on: aerobic spores; experiment: Example 2: aerobic spore count in stagnant 2 d old broke diluted with circulation water
Description: as §1, §2

[6] = tested on: aerobic spores; experiment: Example 3: aerobic spore count in spiked paper machine process water, biocidal pre-treatment
Description: as §3
Authentic circulation water (1 litre) was collected from a paper machine producing food packaging board and divided into 4 samples with volume of 50 ml. To obtain equal bacterial spore content in the samples at start of the experiment, each sample was spiked with additional bacterial spores. The target level for spores was c.a. 10 000 CFU/ml. The spore solution for spiking was prepared as follows: authentic spore-forming bacteria that were isolated from a paper making process were pre-grown for 2 days at +37° C. in modified nutrient broth, after which the mature spores were harvested, and washed by using centrifugation and cold water. Out of the 4 samples, • the first sample was left without any chemical addition as a reference sample. • the second sample was treated with sodium hypochlorite, at dosage of 5 mg/I, given as active chlorine; • the third sample was treated with a germinant surfactant comprising dodecylguanidine hydrochloride (DGH), at dosage level of 100 mg/I, given as active compound; and • the fourth sample was treated with sodium hypochlorite, at dosage of 5 mg/I, given as active chlorine) for 1 minute, after which the […] sample was treated with a germinant surfactant comprising dodecylguanidine hydrochloride (DGH), at dosage level of 100 mg/I, given as active compound;
Samples were stored at 45° C., under mixing of 180 rpm, for 30 minutes except samples 2 and 4, which were in addition pre-treated with sodium hypochlorite for 1 minute. After the treatment the amount of total aerobic bacteria (non-pasteurized samples) and aerobic spores were quantified (plate count agar, +32° C., 2 days incubation). Prior to the aerobic spore determination, samples were pasteurized at +82° C. for 10 min.

| SMILES | total aerobic bacteria level [1] | Total aerobic bacteria PCA +32, 30 min @45° C. [2] | spore reduction ([3]; process streams with different pulp consistencies (summary of Example 1)) [%] | Spore reduction (%) ([3]; pulp consistency 0.1 w/w-%) | Aerobic spores, cfu/ml (+82° C., 10 min, +32° C., 2 d PCA) ([3]; pulp consistency 0.1 w/w-%) [cfu/ml] | Spore reduction (%) ([3]; pulp consistency 3 w/w-%) | Aerobic spores, cfu/ml (+82° C., 10 min, +32° C., 2 d PCA) ([3]; pulp consistency 3 w/w-%) [cfu/ml] | Spore reduction (%) ([3]; pulp consistency 6 w/w-%) | Aerobic spores, cfu/ml (+82° C., 10 min, +32° C., 2 d PCA) ([3]; pulp consistency 6 w/w-%) | Bacterial killing efficacy (%) ([4]; pulp consistency 0.1 w/w-%) | Total aerobic bacteria (+32° C., 2 d PCA) ([4]; pulp consistency 0.1 w/w-%) | Bacterial killing efficacy (%) ([4]; pulp consistency 3 w/w-%) | Total aerobic bacteria (+32° C., 2 d PCA) ([4]; pulp consistency 3 w/w-%) | Bacterial killing efficacy (%) ([4]; pulp consistency 6 w/w-%) | Total aerobic bacteria (+32° C., 2 d PCA) ([4]; pulp consistency 6 w/w-%) | level of aerobic spores ([5]; stagnant 2 d old broke, DGH 70 mg/l active 5 min, diluted, total contact time 35 min, +45° C., untreated 330 CFU/ml) [CFU/ml] | spore reduction ([5]; stagnant diluted broke, DGH 70 mg/l active) [%] | spore reduction ([6]; DGH 100 mg/l active, with or without sodium hypochlorite 5 mg/l pre-treatment, vs untreated) [%] | Aerobic spores PCA +32 30 min @45° C. ([6]; pasteurized +82° C. 10 min, sodium hypochlorite 5 ppm as active chlorine and/or DGH 100 ppm as active, untreated 13 000) | effect on bacterial spores ([6]; sodium hypochlorite 5 mg/l as active chlorine) |
| --- | --- | --- | --- | --- | --- | --- | --- | --- | --- | --- | --- | --- | --- | --- | --- | --- | --- | --- | --- | --- |
| CCCCCCCCCCCCNC(=N)N [DGH, dodecylguanidine hydrochloride] | 2×10^6 CFU/ml | 10 000 CFU/ml | > 45 | 98 | 400 | 87 | 700 | 45 | 2 800 cfu/ml | 100 | 300 | 78 | 9 000 | 55 | 77 000 | 120 | > 60 | > 70 | – | – |
| OCl [sodium hypochlorite] | – | – | – | – | – | – | – | – | – | – | – | – | – | – | – | – | – | – | 17 000 CFU/ml | did not have any effect on bacterial spores |
